Where a name gives a salt, the structure may show the parent alone. Read-outs that look alike come from different tables or passages of the source.

Data set [1] in a line: Pharmacokinetics of single administration in solid tumour subjects. The following applies: human, plasma, single oral administration. In kind it is in vivo. As to the method:
(§1) All the solid tumour subjects participating in the tolerance research in Example 3 were performed a monitor of plasma concentration to evaluate pharmacokinetic parameters of the capsule of Compound I dihydrochloride. • (1) Pharmacokinetics of Single Administration
After beginning the tests, the qualified subjects took the capsule of Compound I dihydrochloride once and performed pharmacokinetic studies of single administration.

The nature of data set [2]: Pharmacokinetics of continuous administration (2 weeks, rest 1 week) in solid tumour subjects. In kind it is in vivo. Conditions: human, plasma, oral. The protocol: as §1
The qualified subjects took the drug once and performed pharmacokinetic monitor of single administration. After subjecting to at least 7 days of a washout period, pharmacokinetic studies of continuous administration were performed. One treating cycle has continuous administration for 2 weeks and rest for 1 week, and continuous monitor were applied for at least 2 cycles. A total of 21 subjects in 3 dose groups (10 mg, 16 mg and 12 mg, respectively) continuously took the capsules of Compound I dihydrochloride, while performing the monitor of plasma concentration.

A further data set deals with malignant tumor patients. In words: Preliminary and overall therapeutic effect in malignant tumor patients. In kind it is in vivo, human. Conditions: continuous administration for two weeks and rest for one week. The protocol: The malignant tumor patients those were diagnosed definitely and had failed standard treatment or lacking standard treatment were recruited for phase I study of tolerance and preliminary therapeutic effect. The tolerance was observed when patients were administered 5 mg or 10 mg of the capsules of dihydrochloride of Compound I once daily respectively for at least 2 cycles continuously, wherein each cycle was 28 days.
After the adjustment of the dosage regimen, the malignant tumor patients those were diagnosed definitely and had failed standard treatment or lacking standard treatment were recruited, continuous administrating for 2 weeks and resting for 1 week were applied, i.e., 3 weeks (21 days) was a treatment cycle, and the observation of tolerance was continuously performed and maintained at least 2 cycles (42 days), and the observation of therapeutic effects was performed at the same time.

With `COc1cc2c(Oc3ccc4[nH]c(C)cc4c3F)ccnc2cc1OCC1(N)CC1` [Compound I, 1-[[[4-(4-fluoro-2-methyl-1H-indol-5-yl)oxy-6-methoxyquinolin-7-yl]oxy]methyl]cyclopropylamine], the area under the curve AUC(0-inf) in data set [1] (10 mg/person, n = 4, mean) amounted to 570 ng·h/mL; in data set [1] (12 mg/person, n = 11, mean) it was 1160 ng·h/mL; in data set [1] (16 mg/person, n = 4, mean), 1720 ng·h/mL. For the same compound, the AUC(0-t) stood at 327 ng·h/mL in data set [1] (10 mg/person, n = 4, mean); 938 ng·h/mL in data set [1] (12 mg/person, n = 11, mean); 1330 ng·h/mL in data set [1] (16 mg/person, n = 4, mean). The maximum concentration (Cmax) amounted to 6.07 ng/mL in data set [1] (10 mg/person, n = 4, mean); 11.3 ng/mL in data set [1] (12 mg/person, n = 11, mean); 16.1 ng/mL in data set [1] (16 mg/person, n = 4, mean); 64.9 ng/mL in data set [2] (10 mg/person, n = 3, average (RSD %)); 67 ng/mL in data set [2] (12 mg/person, n = 15, average (RSD %)); 93.1 ng/mL in data set [2] (16 mg/person, n = 3, average (RSD %)). Moreover, the MRT came to 142 h in data set [1] (10 mg/person, n = 4, mean); 162 h in data set [1] (12 mg/person, n = 11, mean); 163 h in data set [1] (16 mg/person, n = 4, mean). Also, the Tmax in data set [1] (10 mg/person, n = 4, mean) is 6.75 h; in data set [1] (12 mg/person, n = 11, mean), 8.73 h; in data set [1] (16 mg/person, n = 4, mean), 10 h. For the same compound, the half-life is 3.7 days in data set [1] (10 mg/person, n = 4, mean, read-out: t1/2 (converted)); 3.83 days in data set [1] (12 mg/person, n = 11, mean, read-out: t1/2 (converted)); 4.03 days in data set [1] (16 mg/person, n = 4, mean, read-out: t1/2 (converted)); 3.33 to 4.17 days in data set [1] (read-out: half-life period (t1/2)).
With `COc1cc2c(Oc3ccc4[nH]c(C)cc4c3F)ccnc2cc1OCC1(N)CC1` [Compound I dihydrochloride, 1-[[[4-(4-fluoro-2-methyl-1H-indol-5-yl)oxy-6-methoxyquinolin-7-yl]oxy]methyl]cyclopropylamine dihydrochloride], the “therapeutic effects, overall” value with malignant tumor patients was “various tumours can benefit”.

For the origin of these results see patent US10251876B2, “Method for treating tumour, pharmaceutical composition and medicinal kit” (CHIA TAI TIANQING PHARMACEUTICAL GROUP CO., LTD., priority 2014, dated 2019).
